Reference: ChEMBL document CHEMBL1147283, “Bullatacin and bullatacinone: two highly potent bioactive acetogenins from Annona bullata” (J Nat Prod, 1989)
≈ marks a conversion by molar mass, not a printed value. Calls of active or inactive are those of the source. The calls are words filed in the database; no cut-off is given here.

Key:
[1] = Toxicity in brine shrimp; type: organism-based; details: artemia, in vivo
[2] = Displacement of radiolabeled ligand form protein kinase C at 10 uM
[3] = (§1) Cytotoxicity against mouse 9PS cells; type: functional; details: read-out: ED50 (the source's name)
[4] = (§2) Cytotoxicity against human 9KB cells; type: functional
A549 = assay: Cytotoxicity against human A549 cells; type: functional, cell-based; details: for EC50: Homo sapiens, A549, read-out: ED50 (the source's name)
HT-29 = assay: Cytotoxicity against human HT-29 cells; type: functional, cell-based
Aphis gossypii [5] = assay: Pesticidal activity against Aphis gossypii at 10 ppm relative to control; type: functional
Aphis gossypii [6] = assay: Pesticidal activity against Aphis gossypii at 100 ppm relative to control; type: functional
Aphis gossypii [7] = assay: Pesticidal activity against Aphis gossypii at 400 ppm relative to control; type: functional
Aedes aegypti [8] = assay: Pesticidal activity against Aedes aegypti larvae at 0.5 ppm relative to control; type: functional
Aedes aegypti [9] = assay: Pesticidal activity against Aedes aegypti larvae at 1 ppm relative to control; type: functional
Aedes aegypti [10] = assay: Pesticidal activity against Aedes aegypti larvae at 10 ppm relative to control; type: functional
Spodoptera eridania [11] = assay: Pesticidal activity against Spodoptera eridania at 100 ppm relative to control; type: functional
Spodoptera eridania [12] = assay: Pesticidal activity against Spodoptera eridania at 400 ppm relative to control; type: functional
[13] = tested on: Diabrotica undecimpunctata; assay: Pesticidal activity against Diabrotica undecimpunctata howardi at 6 ppm relative to control; type: functional
[14] = tested on: Diabrotica undecimpunctata; assay: Pesticidal activity against Diabrotica undecimpunctata howardi at 24 ppm relative to control; type: functional
Tetranychus urticae [15] = assay: Pesticidal activity against Tetranychus urticae at 10 ppm relative to control; type: functional
Tetranychus urticae [16] = assay: Pesticidal activity against Tetranychus urticae at 100 ppm relative to control; type: functional
Tetranychus urticae [17] = assay: Pesticidal activity against Tetranychus urticae at 400 ppm relative to control; type: functional
Mus musculus = organism: Mus musculus; assay: as §1; type: functional
9KB = assay: as §2; type: functional

Structure (SMILES): C=C1C[C@@]23CC[C@H]4[C@@](C)(CCC[C@]4(C)C(=O)O)[C@@H]2CCC1C3
- LC50 [1]: 0.87 µg/mL (≈ 2.88 µM)

Structure (SMILES): CCCCCCCCCC[C@@H](O)[C@@H]1CC[C@@H]([C@@H]2CC[C@@H]([C@H](O)CCCCCCCCCC(O)CC3=CC(C)OC3=O)O2)O1 (stereo partly specified) [BULLATACIN]
- Activity [2]: 7%

Structure (SMILES): CCCCCCCCCC[C@H](OC(C)=O)[C@H]1CC[C@H]([C@H]2CC[C@H]([C@@H](CCCCCCCCCC[C@H](CC3=C[C@H](C)OC3=O)OC(C)=O)OC(C)=O)O2)O1 [BULLATACIN TRIACETATE]
- LC50 [1]: 5.7 µg/mL
- EC50 [3]: 0.00389 µg/mL
- ED50 [4]: 6.85 ×10⁻⁷ ug/ml
- EC50 (A549): 0.002 µg/mL
- EC50 (HT-29; Homo sapiens, HT-29, read-out: ED50 (the source's name)): > 0.1 µg/mL

Structure (SMILES): CCCCCCCCCC[C@H](O)[C@H]1CC[C@H]([C@H]2CC[C@H]([C@H](O)CCCCCCCCCC[C@@H]3CC(CC(C)=O)C(=O)O3)O2)O1 (stereo partly specified) [BULLATACINONE]
- LC50 [1]: 0.003 µg/mL (≈ 0.00482 µM)
- EC50 [3]: 0.00423 µg/mL (≈ 0.00679 µM)
- ED50 [4]: <1 ×10⁻¹² ug/ml
- EC50 (A549): 0.001 µg/mL (≈ 0.00161 µM)
- ED50 (HT-29): 5 ×10⁻¹² ug/ml
- Activity (Aphis gossypii [5]): 0%
- Activity (Aphis gossypii [6]): 0%
- Activity (Aphis gossypii [7]): 0%
- Activity (Aedes aegypti [8]): 0%
- Activity (Aedes aegypti [9]): 0%
- Activity (Aedes aegypti [10]): 0%
- Activity (Spodoptera eridania [11]): 0%
- Activity (Spodoptera eridania [12]): 0%
- Activity [13]: 0%
- Activity [14]: 0%
- Activity (Tetranychus urticae [15]): 0%
- Activity (Tetranychus urticae [16]): 0%
- Activity (Tetranychus urticae [17]): 0%

Structure (SMILES): CCCCCCCCCC[C@H](OC(C)=O)[C@H]1CC[C@H]([C@H]2CC[C@H]([C@@H](CCCCCCCCCC[C@@H]3C[C@@H](CC(C)=O)C(=O)O3)OC(C)=O)O2)O1 [BULLATACINONE DIACETATE]
- LC50 [1]: > 10 µg/mL
- EC50 [3]: 0.0422 µg/mL
- EC50 ([4]; Homo sapiens, 9KB, read-out: ED50 (the source's name)): 0.005 µg/mL
- EC50 (A549): 0.028 µg/mL
- ED50 (HT-29): 1 ×10⁻¹ umol/L

Structure (SMILES): O=C1c2ccccc2-c2c3c(cc4ccnc1c24)OCO3 [LIRIODENINE]
- LC50 [1]: 1.1 µg/mL (≈ 4 µM)
- Activity (Mus musculus): inactive
- Activity (9KB): inactive

Structure (SMILES): CCCCCCCCCC[C@H](O)[C@H]1CC[C@H]([C@H]2CC[C@H]([C@H](O)CCCCCCCCCC[C@@H](O)CC3C[C@H](C)OC3=O)O2)O1 (stereo partly specified) [DIHYDROBULLATACIN]
- LC50 [1]: 0.0145 µg/mL (≈ 0.0232 µM)
- ED50 (A549): <1 ×10⁻⁶ ug/ml
- ED50 (HT-29): 3.33 ×10⁻⁵ ug/ml
